Reference: patent publication US20120239131A1, “METHODS AND APPARATUS FOR TREATMENT OF ANEURYSMAL TISSUE” (Medtronic Vascular, Inc., priority 2011, published 2012)

Legend:
Assay type in all cases: in vivo, ApoE−/− mice
CCR2 = test: Aortic mural gene expression, RT-PCR (TLDA); settings: fold change over ApoE−/− control; aorta, 28 days Ang II infusion
Protocol: (§1) ApoE−/− mice used in this study were divided into different pretreatment groups: 1) Fluvastatin-MF; 2) Doxycycline-MD; 3) Irbesartan-MI; 4) Telmisartan-MT; 5) Control (water) and fed medicated chow or medicated drinking water 1 week prior to pump implantation. AngII (1000 ng·kg^−1 of body weight·min^−1) was infused subcutaneously via Alzet mini-osmotic pumps for 28 days. All mice were maintained on the medicated chow (MI & MT) or medicated drinking water (MF & MD) treatments which were delivered daily for a total of 28 days following pump implantation.
(§2) In order to determine the effect of the various treatments on the progressive enlargement of the experimental AAAs the mice were followed with high frequency trans-abdominal ultrasound. Maximum aortic diameter was measured and recorded prior to pump implantation and then at 3, 7, 14, 21, and 28 days. All mice were sacrificed 28 days after pump implantation. Aortae were harvested and subjected to either histological analysis (Elastic Masson trichome, MAC2, CD31 and TUNEL staining) and analysis of mural gene expression. Plasma drug concentrations of experimental compounds were quantified on the day of sacrifice using high performance liquid chromatography (HPLC).
(§3) Total RNA was extracted from homogenized aortas using the Qiazol lysis reagent and RNeasy Lipid Tissue Mini kit. DNAse treatment was included in the procedure. RNA concentration was determined utilizing the Quant iT RNA assay kit. Complimentary deoxyribonucleic acid (cDNA) was synthesized from 1 μg RNA using High reverse cDNA transcription kit. Briefly the reaction tubes containing RNA, reverse transcriptase, buffer, RNAse inhibitor, and nuclease free water were incubated at 25° C. for 10 minutes to allow annealing. Reverse transcription was performed at 37° C. for 120 min, followed by a 5 sec incubation at 85° C. to inactivate the reverse transcriptase enzyme. The cDNA samples were cooled at 4° C. and stored at −80° C. until further use.
(§4) Real time PCR was performed using a 384-well Taqman low density array (TLDA) card. Each sample specific PCR mix contained 50 ng of total RNA converted to cDNA. The PCR reaction for Taqman assays contained 50 μl Master Mix (Taqman Universal PCR Master Mix,) and 50 ul of cDNA and RNAase free water. Assays were performed to include appropriate controls (no template control). The RT-PCR protocol included an initial step of 50° C. (2 minutes) […], denaturation by a hot start at 95° C. for 10 min, followed by 40 cycles of a 2 step program (denaturation at 95° C. for 15 secs for primer annealing/extension at 60° C. for 1 min). Fluorescence data was collected at 60° C. Fluorescence was quantified with ABI PRISM 7900HT Sequence Detection System. To verify amplification of a specific target cDNA, data generated was analyzed using SDS 2.2.3 software (Sequence Detection System Software, Applied Biosystems). For all amplification plots, the baseline data were set with the automatic CT function available with SDS 2.2.3 calculating the optimal baseline range and threshold value by using the AutoCT algorithm. According to the manufacturer's instruction, a CT value of ≧39 corresponds to nonspecific amplification marking the limits of detection. For endogenous control GAPDH was normalized to B2M. For relative quantification (RQ), pooled ApoE−/− control was used as the calibrator (with expression equal to 1).

CCR5 = test: Aortic mural gene expression, RT-PCR (TLDA); settings: fold change over ApoE−/− control; aorta, 28 days Ang II infusion
Protocol: as §1, §2, §3, §4

CXCR4 = test: Aortic mural gene expression, RT-PCR (TLDA); settings: fold change over ApoE−/− control; aorta, 28 days Ang II infusion
Protocol: as §1, §2, §3, §4

Cathepsin B = test: Aortic mural gene expression, RT-PCR (TLDA); settings: fold change over ApoE−/− control; aorta, 28 days Ang II infusion
Protocol: as §1, §2, §3, §4

Fibronectin -1 = test: Aortic mural gene expression, RT-PCR (TLDA); settings: fold change over ApoE−/− control; aorta, 28 days Ang II infusion
Protocol: as §1, §2, §3, §4

IL-7 = test: Aortic mural gene expression, RT-PCR (TLDA); settings: fold change over ApoE−/− control; aorta, 28 days Ang II infusion
Protocol: as §1, §2, §3, §4

ITGAL = test: Aortic mural gene expression, RT-PCR (TLDA); settings: fold change over ApoE−/− control; aorta, 28 days Ang II infusion
Protocol: as §1, §2, §3, §4

TIMP2 = test: Aortic mural gene expression, RT-PCR (TLDA); settings: fold change over ApoE−/− control; aorta, 28 days Ang II infusion
Protocol: as §1, §2, §3, §4

TNF-α = test: Aortic mural gene expression, RT-PCR (TLDA); settings: fold change over ApoE−/− control; aorta, 28 days Ang II infusion
Protocol: as §1, §2, §3, §4

Tgfβ1 = test: Aortic mural gene expression, RT-PCR (TLDA); settings: fold change over ApoE−/− control; aorta, 28 days Ang II infusion
Protocol: as §1, §2, §3, §4

CSF1 = test: Aortic mural gene expression, RT-PCR (TLDA); settings: fold change over ApoE−/− control; aorta, 28 days Ang II infusion
Protocol: Total RNA was extracted from homogenized aortas using the Qiazol lysis reagent and RNeasy Lipid Tissue Mini kit. DNAse treatment was included in the procedure. RNA concentration was determined utilizing the Quant iT RNA assay kit. Complimentary deoxyribonucleic acid (cDNA) was synthesized from 1 μg RNA using High reverse cDNA transcription kit. Briefly the reaction tubes containing RNA, reverse transcriptase, buffer, RNAse inhibitor, and nuclease free water were incubated at 25° C. for 10 minutes to allow annealing. […] The cDNA samples were cooled at 4° C. and stored at −80° C. until further use.
Real time PCR was performed using a 384-well Taqman low density array (TLDA) card. Each sample specific PCR mix contained 50 ng of total RNA converted to cDNA. The PCR reaction for Taqman assays contained 50 μl Master Mix (Taqman Universal PCR Master Mix,) and 50 ul of cDNA and RNAase free water. Assays were performed to include appropriate controls (no template control). The RT-PCR protocol included an initial step of 50° C. […] Fluorescence data was collected at 60° C. Fluorescence was quantified with ABI PRISM 7900HT Sequence Detection System. To verify amplification of a specific target cDNA, data generated was analyzed using SDS 2.2.3 software (Sequence Detection System Software, Applied Biosystems). […] For relative quantification (RQ), pooled ApoE−/− control was used as the calibrator (with expression equal to 1).

[1] = system: genes involved in the pathophysiology of AAA; test: Drug inhibition effect on differentially expressed genes, overall; settings: for Down-regulation of genes involved in the pathophysiology of AAA: ApoE−/− + Ang II AAA model, summary of Table 2; for Total Score: sum of heat map grades over 25 genes, ApoE−/− + Ang II group scored 55
Protocol: as §1, §2, §3, §4

## CC(C)n1c(/C=C/C(O)CC(O)CC(=O)O)c(-c2ccc(F)cc2)c2ccccc21 (stereo not shown) [Fluvastatin]
CCR2
  CCR2 expression: +++ (3.1 to 10 = +++)
CCR5
  CCR5 expression: +++ (3.1 to 10 = +++)
CXCR4
  CXCR4 expression: +++ (3.1 to 10 = +++)
Cathepsin B
  Cathepsin B expression: + (1.1 to 1.5 = +)
Fibronectin -1
  Fibronectin -1 expression: − (0 to 1 = −)
IL-7
  IL-7 expression: − (0 to 1 = −)
ITGAL
  ITGAL expression: ++ (1.51 to 3 = ++)
TIMP2
  TIMP2 expression: − (0 to 1 = −)
TNF-α
  TNF-α expression: ++ (1.51 to 3 = ++)
Tgfβ1
  Tgfβ1 expression: +++ (3.1 to 10 = +++)
CSF1
  CSF1 expression: − (0 to 1 = −)
[1]
  Down-regulation of genes involved in the pathophysiology of AAA: down-regulating the expression of genes
  Total Score: 45

## CCCc1nc2c(C)cc(-c3nc4ccccc4n3C)cc2n1Cc1ccc(-c2ccccc2C(=O)O)cc1 [Telmisartan]
CCR2
  CCR2 expression: − (0 to 1 = −)
CCR5
  CCR5 expression: − (0 to 1 = −)
CXCR4
  CXCR4 expression: +++ (3.1 to 10 = +++)
Cathepsin B
  Cathepsin B expression: − (0 to 1 = −)
Fibronectin -1
  Fibronectin -1 expression: − (0 to 1 = −)
IL-7
  IL-7 expression: + (1.1 to 1.5 = +)
TIMP2
  TIMP2 expression: − (0 to 1 = −)
TNF-α
  TNF-α expression: − (0 to 1 = −)
Tgfβ1
  Tgfβ1 expression: − (0 to 1 = −)
CSF1
  CSF1 expression: − (0 to 1 = −)
[1]
  Down-regulation of genes involved in the pathophysiology of AAA: down-regulating the expression of genes
  Total Score: 6
